Laboratory results: the supplement of paper PMC8617591

Assays:
[1] = test system: Mycobacterium tuberculosis Erdman (autoluminescent); assay: FIC50 (Loewe) at 50% inhibition (log2); higher = more antagonistic
Method: (§1)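 DiaMOND equipotent two-drug combination dose responses against autoluminescent M. tuberculosis Erdman in 8 in vitro models. Read-out is OD600, or luminescence for the intracellular and dormancy models, normalised to untreated wells. Hill-fit Einf, AUC25 and GRinf are potency metrics; FIC50 and FIC90 are Loewe-additivity fractional inhibitory concentrations, given as log2 (negative = synergy). Replicates are averaged.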

[2] = test system: Mycobacterium tuberculosis Erdman (autoluminescent); assay: FIC90 (Loewe) at 90% inhibition (log2); higher = more antagonistic
Method: as §1

[3] = test system: Mycobacterium tuberculosis Erdman (autoluminescent); assay: Einf, fitted maximum growth inhibition of combination (fraction); higher = stronger maximal inhibition
Method: as §1

[4] = test system: Mycobacterium tuberculosis Erdman (autoluminescent); assay: GRinf, maximum normalised growth rate inhibition (unitless (-1 to 1)); higher = less effect (negative = killing)
Method: as §1

[5] = test system: Mycobacterium tuberculosis Erdman (autoluminescent); assay: AUC25, normalised area under dose response up to IC25 (fraction (0-1)); higher = more potent at low dose
Method: as §1

[6] = in vitro model: acidic pH 5.7, time point: constant (~7 days, model-specific)
[7] = in vitro model: acidic pH 5.7, time point: terminal (~4-5 doublings, model-specific)
[8] = in vitro model: butyrate, time point: constant (~7 days, model-specific)
[9] = in vitro model: butyrate, time point: terminal (~4-5 doublings, model-specific)
[10] = in vitro model: cholesterol 0.05 mM, time point: terminal (~4-5 doublings, model-specific)
[11] = in vitro model: cholesterol-high 0.2 mM, time point: constant (~7 days, model-specific)
[12] = in vitro model: cholesterol-high 0.2 mM, time point: terminal (~4-5 doublings, model-specific)
[13] = in vitro model: dormancy (butyrate + nitrate, low O2), time point: constant (~7 days, model-specific)
[14] = in vitro model: dormancy (butyrate + nitrate, low O2), time point: terminal (~4-5 doublings, model-specific)
[15] = in vitro model: standard 7H9 glycerol, time point: constant = terminal
[16] = in vitro model: valerate, time point: constant (~7 days, model-specific)
[17] = in vitro model: valerate, time point: terminal (~4-5 doublings, model-specific)
[18] = in vitro model: intracellular J774, time point: constant = terminal
[19] = in vitro model: cholesterol 0.05 mM, time point: constant (~7 days, model-specific)

CC[C@@H](CO)NCCN[C@@H](CC)CO [ethambutol] + NC(=O)c1cnccn1 [pyrazinamide]
FIC50 [1, 6]: -0.632
FIC50 [1, 7]: 0.212
FIC50 [1, 8]: 0.466
FIC50 [1, 9]: 0.636
FIC50 [1, 10]: -0.0968
FIC50 [1, 11]: 0.961
FIC50 [1, 12]: 0.865
FIC50 [1, 13]: -0.134
FIC50 [1, 14]: 0.32
FIC50 [1, 15]: 0.18
FIC50 [1, 16]: -0.152
FIC50 [1, 17]: 0.447
FIC90 [2, 7]: -0.791
FIC90 [2, 12]: 0.821
FIC90 [2, 14]: -0.408
FIC90 [2, 18]: -0.166
Einf [3, 6]: 0.866
Einf [3, 7]: 0.968
Einf [3, 8]: 0.866
Einf [3, 9]: 0.817
Einf [3, 19]: 0.722
Einf [3, 10]: 0.901
Einf [3, 11]: 0.843
Einf [3, 12]: 0.999
Einf [3, 13]: 0.813
Einf [3, 14]: 0.945
Einf [3, 18]: 0.994
Einf [3, 15]: 0.873
Einf [3, 16]: 0.705
Einf [3, 17]: 0.862
GRinf [4, 6]: -0.453
GRinf [4, 7]: -0.281
GRinf [4, 8]: 0.133
GRinf [4, 9]: -0.101
GRinf [4, 19]: -0.326
GRinf [4, 10]: -0.224
GRinf [4, 11]: -0.204
GRinf [4, 12]: -0.777
GRinf [4, 13]: 0.463
GRinf [4, 14]: 0.154
GRinf [4, 18]: -0.569
GRinf [4, 15]: 0.0807
GRinf [4, 16]: 0.281
GRinf [4, 17]: 0.248
AUC25 [5, 6]: 0.0998
AUC25 [5, 7]: 0.0625
AUC25 [5, 8]: 0.0986
AUC25 [5, 9]: 0.0883
AUC25 [5, 19]: 0.129
AUC25 [5, 10]: 0.14
AUC25 [5, 11]: 0.0356
AUC25 [5, 12]: 0.0539
AUC25 [5, 13]: 0.0925
AUC25 [5, 14]: 0.085
AUC25 [5, 15]: 0.0625
AUC25 [5, 16]: 0.0825
AUC25 [5, 17]: 0.0643

CC[C@@H](CO)NCCN[C@@H](CC)CO [ethambutol] + NNC(=O)c1ccncc1 [isoniazid]
FIC50 [1, 6]: 1.2
FIC50 [1, 7]: 0.67
FIC50 [1, 8]: 0.509
FIC50 [1, 9]: 0.525
FIC50 [1, 19]: 0.389
FIC50 [1, 10]: 0.82
FIC50 [1, 11]: 0.561
FIC50 [1, 12]: 0.775
FIC50 [1, 13]: -0.0762
FIC50 [1, 14]: -0.121
FIC50 [1, 15]: 0.483
FIC50 [1, 16]: 0.108
FIC50 [1, 17]: 0.332
FIC90 [2, 7]: 0.229
FIC90 [2, 9]: 0.423
FIC90 [2, 12]: 0.501
FIC90 [2, 14]: -0.0702
FIC90 [2, 18]: -0.439
FIC90 [2, 15]: 0.426
FIC90 [2, 17]: 0.345
Einf [3, 6]: 0.693
Einf [3, 7]: 0.919
Einf [3, 8]: 0.933
Einf [3, 9]: 0.973
Einf [3, 19]: 0.73
Einf [3, 10]: 0.862
Einf [3, 11]: 0.905
Einf [3, 12]: 1
Einf [3, 13]: 0.818
Einf [3, 14]: 0.964
Einf [3, 18]: 1
Einf [3, 15]: 0.92
Einf [3, 16]: 0.897
Einf [3, 17]: 0.935
GRinf [4, 6]: -0.17
GRinf [4, 7]: 0.00119
GRinf [4, 8]: -0.0966
GRinf [4, 9]: -0.109
GRinf [4, 19]: -0.157
GRinf [4, 10]: -0.106
GRinf [4, 11]: -0.31
GRinf [4, 12]: -0.731
GRinf [4, 13]: 0.454
GRinf [4, 14]: -0.0063
GRinf [4, 18]: -0.332
GRinf [4, 15]: 0.0262
GRinf [4, 16]: 0.0449
GRinf [4, 17]: 0.0607
AUC25 [5, 6]: 0.134
AUC25 [5, 7]: 0.0706
AUC25 [5, 8]: 0.075
AUC25 [5, 9]: 0.0681
AUC25 [5, 19]: 0.0891
AUC25 [5, 10]: 0.0491
AUC25 [5, 11]: 0.0277
AUC25 [5, 12]: 0.0319
AUC25 [5, 13]: 0.104
AUC25 [5, 14]: 0.0973
AUC25 [5, 15]: 0.0635
AUC25 [5, 16]: 0.111
AUC25 [5, 17]: 0.0612

CC[C@@H](CO)NCCN[C@@H](CC)CO [ethambutol] + O=[N+]([O-])c1cn2c(n1)OC[C@@H](OCc1ccc(OC(F)(F)F)cc1)C2 [pretomanid]
FIC50 [1, 6]: 0.0798
FIC50 [1, 7]: 0.568
FIC50 [1, 8]: 0.254
FIC50 [1, 9]: 0.0549
FIC50 [1, 19]: 0.407
FIC50 [1, 10]: 0.436
FIC50 [1, 11]: 1.02
FIC50 [1, 12]: 0.975
FIC50 [1, 13]: 0.385
FIC50 [1, 14]: 0.00245
FIC50 [1, 15]: 0.211
FIC50 [1, 16]: 0.23
FIC50 [1, 17]: 0.115
FIC90 [2, 6]: -1.11
FIC90 [2, 7]: 0.214
FIC90 [2, 9]: -0.401
FIC90 [2, 10]: 1.01
FIC90 [2, 12]: 1.06
FIC90 [2, 14]: 0.272
FIC90 [2, 18]: -1.45
FIC90 [2, 15]: -0.156
FIC90 [2, 17]: 0.51
Einf [3, 6]: 0.847
Einf [3, 7]: 0.978
Einf [3, 8]: 0.924
Einf [3, 9]: 0.967
Einf [3, 19]: 0.79
Einf [3, 10]: 0.934
Einf [3, 11]: 0.871
Einf [3, 12]: 0.99
Einf [3, 13]: 0.835
Einf [3, 14]: 0.968
Einf [3, 18]: 0.977
Einf [3, 15]: 0.958
Einf [3, 16]: 0.836
Einf [3, 17]: 0.922
GRinf [4, 6]: -0.488
GRinf [4, 7]: -0.437
GRinf [4, 8]: 0.00273
GRinf [4, 9]: -0.0359
GRinf [4, 19]: -0.319
GRinf [4, 10]: -0.25
GRinf [4, 11]: -0.159
GRinf [4, 12]: -0.498
GRinf [4, 13]: 0.404
GRinf [4, 14]: 0.0288
GRinf [4, 18]: -0.403
GRinf [4, 15]: -0.109
GRinf [4, 16]: 0.0201
GRinf [4, 17]: 0.0884
AUC25 [5, 6]: 0.113
AUC25 [5, 7]: 0.0826
AUC25 [5, 8]: 0.0746
AUC25 [5, 9]: 0.0585
AUC25 [5, 19]: 0.12
AUC25 [5, 10]: 0.104
AUC25 [5, 11]: 0.0476
AUC25 [5, 12]: 0.0356
AUC25 [5, 13]: 0.1
AUC25 [5, 14]: 0.112
AUC25 [5, 15]: 0.076
AUC25 [5, 16]: 0.111
AUC25 [5, 17]: 0.0733

NNC(=O)c1ccncc1 [isoniazid] + CC(=O)NC[C@H]1CN(c2ccc(N3CCOCC3)c(F)c2)C(=O)O1 [linezolid]
FIC50 [1, 6]: 0.0411
FIC50 [1, 7]: 0.877
FIC50 [1, 8]: 0.754
FIC50 [1, 9]: 0.657
FIC50 [1, 19]: 0.121
FIC50 [1, 10]: 4.49
FIC50 [1, 11]: -0.123
FIC50 [1, 12]: -0.0744
FIC50 [1, 13]: 1.45
FIC50 [1, 14]: 1.06
FIC50 [1, 15]: 0.116
FIC50 [1, 16]: 0.548
FIC50 [1, 17]: 0.612
FIC90 [2, 7]: 0.0348
FIC90 [2, 8]: 0.923
FIC90 [2, 9]: 0.547
FIC90 [2, 10]: -0.681
FIC90 [2, 11]: 0.0406
FIC90 [2, 12]: 0.498
FIC90 [2, 13]: 0.856
FIC90 [2, 14]: 0.558
FIC90 [2, 18]: 0.155
FIC90 [2, 15]: 0.045
FIC90 [2, 17]: 0.861
Einf [3, 6]: 0.795
Einf [3, 7]: 0.963
Einf [3, 8]: 0.917
Einf [3, 9]: 0.959
Einf [3, 19]: 0.677
Einf [3, 10]: 0.945
Einf [3, 11]: 0.928
Einf [3, 12]: 1
Einf [3, 13]: 0.912
Einf [3, 14]: 0.989
Einf [3, 18]: 0.915
Einf [3, 15]: 0.909
Einf [3, 16]: 0.818
Einf [3, 17]: 0.916
GRinf [4, 6]: -0.178
GRinf [4, 7]: -0.173
GRinf [4, 8]: 0.00442
GRinf [4, 9]: 0.0109
GRinf [4, 19]: -0.0433
GRinf [4, 10]: -0.23
GRinf [4, 11]: -0.371
GRinf [4, 12]: -0.893
GRinf [4, 13]: 0.109
GRinf [4, 14]: 0.00877
GRinf [4, 18]: -0.0635
GRinf [4, 15]: 0.137
GRinf [4, 16]: 0.0896
GRinf [4, 17]: 0.0931
AUC25 [5, 6]: 0.0979
AUC25 [5, 7]: 0.0773
AUC25 [5, 8]: 0.0801
AUC25 [5, 9]: 0.0539
AUC25 [5, 19]: 0.129
AUC25 [5, 10]: 0.14
AUC25 [5, 11]: 0.127
AUC25 [5, 12]: 0.119
AUC25 [5, 13]: 0.0528
AUC25 [5, 14]: 0.0354
AUC25 [5, 15]: 0.0758
AUC25 [5, 16]: 0.0661
AUC25 [5, 17]: 0.0441
